In patent US20250313648A1, “Binders of Chondroitin Sulfate Proteoglycan (CSPG4) Polypeptides” (Regents of the University of Minnesota, priority 2021, published 2025):

What was measured:
[1] = tested on: ES-2, HEY, A2780 mock and CSPG4 knockout cells; assay: Cisplatin cytotoxicity assay (MTS); format: cell-based, human; details: CSPG4 knockout vs mock, three cell lines (A2780, HEY, ES-2), 96 hours of treatment
Text: FIGS. 5A-5G. CSPG4 knockout results in significant loss of invasive capacity and cisplatin resistance in multiple ovarian tumor cell lines. Invasion assays using control (Mock) and CSPG4 knockout (CRISPR) HEY cells (FIG. 5A) or A2780 cells (FIG. 5B). Bars represent the total number of invading cells from five random fields/well from triplicate wells, +/−S.D., from three replicate experiments, n=6. P values determined by student's t-test with Welch's correction. […] Lanes: 1—ES-2 Parent, 2—ES-2 Mock, 3—ES-2 CSPG4 knockout, 4—ES-2 CSPG4 Rescue. […] Invasive capacity is rescued in the ES-2 CRISPR knockout line with CSPG4 re-expression (Rescue). P values determined by student's t-test with Welch's correction. FIGS. 5E-G show the cell viability of mock and knockout (CRISPR) A2780 cells (FIG. 5E), mock and knockout HEY cells (FIG. 5F), and mock, knockout and rescue ES-2 cells (FIG. 5G) treated with increasing concentrations of cisplatin. Dose response curves were plotted as the percent of MTS staining vs. untreated cells for each cell line +/−s.e.m. from three replicate experiments (n=9). The phenotype was rescued by re-expression of CSPG4 in the ES-2 CRISPR cells (ES-2 Rescue, in FIG. 5G).
Cisplatin cytotoxicityAssay: Cisplatin stock (3.3 mM) was diluted with growth medium to the required concentrations before each experiment. […] Absorbance at 570 nm was collected on a Tecan 200 plate reader. […]

[2] = tested on: ZEB1 expression in HEY cells; assay: Western blot for pFAK, FAK and ZEB1 after FAK inhibitor treatment; format: cell-based, human; details: normal growth medium, 24 hours, vs DMSO
Experimental: FIGS. 9A-9J. CSPG4 expression is associated with epithelial-to-mesenchymal plasticity, mediated by CSPG4 associated changes in ZEB1 expression. FIG. 9A) The indicated cell lines both Mock(M) and CRISPR(C) were cultured separately in spheroid formation assays for 7 days, collected and analyzed by western blot for various EMT markers. FIG. 9B) Western blot for Zebl and CSPG4 expression in EOC cell lines treated with siRNA for ZEB1 or control for 48 hours. FIG. 9C) Western blot for pFAK, FAK and ZEB1 in HEY cells treated with either DMSO (control) or FAK inhibitor PND-1186 at the indicated concentrations in normal growth medium for 24 hours. FIG. 9D) Spheroid formation in methylcellulose of EOC cell lines treated with siRNA to ZEB1 or control for 7 days. Bars represent spheroid counts from five random fields/well from triplicate wells+/−S.D. *p<0.02 by students t-test with Welch's correction. n=3 from 3 individual experiments. FIG. 9E) Invasion assay of EOC cells treated with ZEB1 siRNA or control siRNA (methods). *p<0.002 by student's t-test with Welch's correction. n=3 from 3 individual experiments. FIGS. 9F and 9G) Cells were transfected with control or ZEB1 siRNA overnight and plated in the cisplatin cytotoxicity assay the following day. MTS data was collected after 4 days of cisplatin treatment. […]

SMILES	reduction in the IC50 for the knockout cell lines [1]	ZEB1 expression [2]
N.N.[Cl][Pt][Cl] [cisplatin, Cisplatin]	3.6-to-8.8 fold	
CNC(=O)c1ccccc1Nc1cc(Nc2ccc(N3CCOCC3)cc2OC)ncc1C(F)(F)F [PND-1186]		inhibited
